Results published in patent US20110053773A1, “METHODS OF IMPROVING NUTRITIONAL VALUE OF PLANTS” (UNIVERSITY OF TENNESSEE RESEARCH FOUNDATION, priority 2009, published 2011).

Assays:
kale 'Red Russian' [1] = assay: Visual injury of kale after insecticide, fungicide, PGRs, safeners (Example 4)
Procedure, shortened: (§1)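 Greenhouse postemergence applications of chlorpyrifos, chlorothalonil, mepiquat-chloride, paclobutrazol, napthalic anhydride or isoxadifen-ethyl. Visual injury (phytotoxicity, chlorosis, stunting) scored 0–100%, 0 = no response, 100 = plant death. Harvest about 4 weeks after treatment; replicates pooled for protein, mineral, amino acid, fiber and fatty acid analysis.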

basil 'Genovese' = assay: Visual injury of basil after insecticide, fungicide, PGRs, safeners (Example 4)
Procedure, shortened: as §1

kale 'Red Russian' [2] = assay: Content analysis of kale: protein, amino acids, fiber, fatty acids, minerals (Example 4, Tables 12-14); format: in vivo; conditions: 28 DA-A
Procedure, shortened: as §1

[3] = 7 DA-A, rates g ai/ha: chlropyrifos 1120, chlorothalonil 2630, paclobutrazol 3.23, mepiquat-chloride 12.3, + NIS 0.25 % v/v
[4] = 7 DA-A, rates g ai/ha: chlropyrifos 3370, chlorothalonil 7900, paclobutrazol 9.7, mepiquat-chloride 37, + NIS 0.25 % v/v
[5] = 14 DA-A, rates g ai/ha: chlropyrifos 1120, chlorothalonil 2630, paclobutrazol 3.23, mepiquat-chloride 12.3, + NIS 0.25 % v/v
[6] = 14 DA-A, rates g ai/ha: chlropyrifos 3370, chlorothalonil 7900, paclobutrazol 9.7, mepiquat-chloride 37, + NIS 0.25 % v/v
[7] = 28 DA-A, rates g ai/ha: chlropyrifos 1120, chlorothalonil 2630, paclobutrazol 3.23, mepiquat-chloride 12.3, + NIS 0.25 % v/v
[8] = 28 DA-A, rates g ai/ha: chlropyrifos 3370, chlorothalonil 7900, paclobutrazol 9.7, mepiquat-chloride 37, + NIS 0.25 % v/v
[9] = 7 DA-A, rates g ai/ha: chlropyrifos 1120, chlorothalonil 2630, paclobutrazol 3.23, mepiquat-chloride 12.3, Isoxadifen 8, Napthalic anhydride 264, + NIS 0.25 % v/v
[10] = 7 DA-A, rates g ai/ha: chlropyrifos 3370, chlorothalonil 7900, paclobutrazol 9.7, mepiquat-chloride 37, Isoxadifen 16, Napthalic anhydride 527, + NIS 0.25 % v/v
[11] = 14 DA-A, rates g ai/ha: chlropyrifos 1120, chlorothalonil 2630, paclobutrazol 3.23, mepiquat-chloride 12.3, Isoxadifen 8, Napthalic anhydride 264, + NIS 0.25 % v/v
[12] = 14 DA-A, rates g ai/ha: chlropyrifos 3370, chlorothalonil 7900, paclobutrazol 9.7, mepiquat-chloride 37, Isoxadifen 16, Napthalic anhydride 527, + NIS 0.25 % v/v
[13] = 28 DA-A, rates g ai/ha: chlropyrifos 1120, chlorothalonil 2630, paclobutrazol 3.23, mepiquat-chloride 12.3, Isoxadifen 8, Napthalic anhydride 264, + NIS 0.25 % v/v
[14] = 28 DA-A, rates g ai/ha: chlropyrifos 3370, chlorothalonil 7900, paclobutrazol 9.7, mepiquat-chloride 37, Isoxadifen 16, Napthalic anhydride 527, + NIS 0.25 % v/v
[15] = first-listed rate g ai/ha: chlropyrifos ###, chlorothalonil ###, paclobutrazol 3.2, mepiquat-chloride 12, + NIS 0.3 % v/v
[16] = rates g ai/ha: chlropyrifos 1120, chlorothalonil 2630, paclobutrazol 3.23, mepiquat-chloride 12.3, + NIS 0.25 % v/v

Q: Which “Phytotoxicity Chlorosis” value (kale 'Red Russian' [1]; [3]) does the source give for `N#Cc1c(Cl)c(Cl)c(Cl)c(C#N)c1Cl` [chlorothalonil] here?
A: 0%

Q: What about the “Phytotoxicity General” value (kale 'Red Russian' [1]; [3]) of the same molecule?
A: 15%

Q: What about the “Phytotoxicity Stunting” value (kale 'Red Russian' [1]; [3]) of the same molecule?
A: 0%

Q: What about the “Phytotoxicity Chlorosis” value (kale 'Red Russian' [1]; [4]) of the same molecule?
A: 0%

Q: And the “Phytotoxicity General” value (kale 'Red Russian' [1]; [4])?
A: 9%

Q: What about the “Phytotoxicity Stunting” value (kale 'Red Russian' [1]; [4]) of the same molecule?
A: 1%

Q: And the “Phytotoxicity Chlorosis” value (kale 'Red Russian' [1]; [5])?
A: 10%

Q: And the “Phytotoxicity General” value (kale 'Red Russian' [1]; [5])?
A: 0%

Q: What about the “Phytotoxicity Stunting” value (kale 'Red Russian' [1]; [5]) of the same molecule?
A: 5%

Q: What about the “Phytotoxicity Chlorosis” value (kale 'Red Russian' [1]; [6]) of the same molecule?
A: 6%

Q: And the “Phytotoxicity General” value (kale 'Red Russian' [1]; [6])?
A: 1%

Q: And the “Phytotoxicity Stunting” value (kale 'Red Russian' [1]; [6])?
A: 5%

Q: And the “Phytotoxicity Chlorosis” value (kale 'Red Russian' [1]; [7])?
A: 3%

Q: And the “Phytotoxicity General” value (kale 'Red Russian' [1]; [7])?
A: 5%

Q: And the “Phytotoxicity Stunting” value (kale 'Red Russian' [1]; [7])?
A: 6%

Q: What about the “Phytotoxicity Chlorosis” value (kale 'Red Russian' [1]; [8]) of the same molecule?
A: 0%

Q: What about the “Phytotoxicity General” value (kale 'Red Russian' [1]; [8]) of the same molecule?
A: 3%

Q: And the “Phytotoxicity Stunting” value (kale 'Red Russian' [1]; [8])?
A: 8%

Q: What about the “Phytotoxicity Chlorosis” value (basil 'Genovese'; [9]) of the same molecule?
A: 5%

Q: What about the “Phytotoxicity General” value (basil 'Genovese'; [9]) of the same molecule?
A: 5%

Q: And the “Phytotoxicity Stunting” value (basil 'Genovese'; [9])?
A: 5%

Q: What about the “Phytotoxicity Chlorosis” value (basil 'Genovese'; [10]) of the same molecule?
A: 15%

Q: What about the “Phytotoxicity General” value (basil 'Genovese'; [10]) of the same molecule?
A: 3%

Q: And the “Phytotoxicity Stunting” value (basil 'Genovese'; [10])?
A: 5%

Q: What about the “Phytotoxicity Chlorosis” value (basil 'Genovese'; [11]) of the same molecule?
A: 5%

Q: And the “Phytotoxicity General” value (basil 'Genovese'; [11])?
A: 0%

Q: What about the “Phytotoxicity Stunting” value (basil 'Genovese'; [11]) of the same molecule?
A: 8%

Q: And the “Phytotoxicity Chlorosis” value (basil 'Genovese'; [12])?
A: 5%

Q: What about the “Phytotoxicity General” value (basil 'Genovese'; [12]) of the same molecule?
A: 2%

Q: What about the “Phytotoxicity Stunting” value (basil 'Genovese'; [12]) of the same molecule?
A: 7%

Q: And the “Phytotoxicity Chlorosis” value (basil 'Genovese'; [13])?
A: 5%

Q: What about the “Phytotoxicity General” value (basil 'Genovese'; [13]) of the same molecule?
A: 10%

Q: What about the “Phytotoxicity Stunting” value (basil 'Genovese'; [13]) of the same molecule?
A: 7%

Q: What about the “Phytotoxicity Chlorosis” value (basil 'Genovese'; [14]) of the same molecule?
A: 10%

Q: And the “Phytotoxicity General” value (basil 'Genovese'; [14])?
A: 3%

Q: What about the “Phytotoxicity Stunting” value (basil 'Genovese'; [14]) of the same molecule?
A: 10%

Q: And the “Alanine, Percent Increase over the Untreated Check (on a % dry matter basis)” value (kale 'Red Russian' [2]; [15])?
A: 3 % check

Q: What about the “Aspartic acid, Percent Increase over the Untreated Check (on a % dry matter basis)” value (kale 'Red Russian' [2]; [15]) of the same molecule?
A: 2 % check

Q: What about the “Cysteine, Percent Increase over the Untreated Check (on a % dry matter basis)” value (kale 'Red Russian' [2]; [15]) of the same molecule?
A: −6 % check

Q: And the “Glutamic acid, Percent Increase over the Untreated Check (on a % dry matter basis)” value (kale 'Red Russian' [2]; [15])?
A: 5 % check

Q: What about the “Glycine, Percent Increase over the Untreated Check (on a % dry matter basis)” value (kale 'Red Russian' [2]; [15]) of the same molecule?
A: 0 % check

Q: And the “Iso-leucine, Percent Increase over the Untreated Check (on a % dry matter basis)” value (kale 'Red Russian' [2]; [15])?
A: 4 % check

Q: And the “Leucine, Percent Increase over the Untreated Check (on a % dry matter basis)” value (kale 'Red Russian' [2]; [15])?
A: 4 % check

Q: What about the “Lysine, Percent Increase over the Untreated Check (on a % dry matter basis)” value (kale 'Red Russian' [2]; [15]) of the same molecule?
A: 5 % check

Q: What about the “Methionine, Percent Increase over the Untreated Check (on a % dry matter basis)” value (kale 'Red Russian' [2]; [15]) of the same molecule?
A: 2 % check

Q: What about the “Proline, Percent Increase over the Untreated Check (on a % dry matter basis)” value (kale 'Red Russian' [2]; [15]) of the same molecule?
A: 6 % check

Q: What about the “Threonine, Percent Increase over the Untreated Check (on a % dry matter basis)” value (kale 'Red Russian' [2]; [15]) of the same molecule?
A: 3 % check

Q: And the “Total Amino acids, Percent Increase over the Untreated Check (on a % dry matter basis)” value (kale 'Red Russian' [2]; [15])?
A: 3 % check

Q: And the “Total Protein, Percent Increase over the Untreated Check (on a % dry matter basis)” value (kale 'Red Russian' [2]; [15])?
A: 1 % check

Q: And the “Valine, Percent Increase over the Untreated Check (on a % dry matter basis)” value (kale 'Red Russian' [2]; [15])?
A: 4 % check

Q: And the “ADF, Percent Increase Over the Untreated Check (on a % dry matter basis)” value (kale 'Red Russian' [2]; [16])?
A: 9 % check

Q: And the “Calcium, Percent Increase Over the Untreated Check (on a % dry matter basis)” value (kale 'Red Russian' [2]; [16])?
A: −6 % check

Q: What about the “Copper, Percent Increase Over the Untreated Check (on a % dry matter basis)” value (kale 'Red Russian' [2]; [16]) of the same molecule?
A: 6 % check

Q: What about the “Iron, Percent Increase Over the Untreated Check (on a % dry matter basis)” value (kale 'Red Russian' [2]; [16]) of the same molecule?
A: −1 % check

Q: What about the “Magnesium, Percent Increase Over the Untreated Check (on a % dry matter basis)” value (kale 'Red Russian' [2]; [16]) of the same molecule?
A: −3 % check

Q: What about the “Manganese, Percent Increase Over the Untreated Check (on a % dry matter basis)” value (kale 'Red Russian' [2]; [16]) of the same molecule?
A: 3 % check

Q: And the “NDF, Percent Increase Over the Untreated Check (on a % dry matter basis)” value (kale 'Red Russian' [2]; [16])?
A: −8 % check

Q: What about the “Phosphorous, Percent Increase Over the Untreated Check (on a % dry matter basis)” value (kale 'Red Russian' [2]; [16]) of the same molecule?
A: 0 % check
